Our source for the IC50 and Caco-2 values is patent US12378243B2, “Quinoline compounds as inhibitors of KRAS” (Incyte Corporation, priority 2021, dated 2025).

The target of series [1] is KRAS G12V mutant (Homo sapiens, UniProt P01116, G12V). Briefly: GDP-GTP exchange assay, KRAS G12V. In kind it is biochemical. The note with it: bodipy loaded KRAS G12V 2.5 nM; 3 hours incubation after adding GppNHp-SOS1 mixture; read-out: G12V_exchange.
The target of series [2] is KRAS G12D (Homo sapiens, UniProt P01116, G12D). Briefly: GDP-GTP exchange assay, KRAS G12D. In kind it is biochemical. The following applies: bodipy-loaded KRAS G12D 2.5 nM, GppNHp 500 uM, SOS1 150 nM; 4 hours pre-incubation, 2 hours incubation; read-out: G12D_exchange. As to the method:
Inhibitors were serially diluted in DMSO and a volume of 0.1 μL was transferred to the wells of a black low volume 384-well plate. […] The exchange was initiated by the addition of a 5 μL/well volume containing 1 mM GppNHp and 300 nM SOS1 in assay buffer. […] The reaction plates were incubated at ambient temperature for 2 hours, a time estimated for complete GDP-GTP exchange in the absence of inhibitor.
Either GraphPad prism or Genedata Screener SmartFit was used to analyze the data. The IC50 values were derived by fitting the data to a four parameter logistic equation producing a sigmoidal dose-response curve with a variable Hill coefficient.
“NA” indicates IC50 not available.

For series [3], the system named is Caco-2 cells. Briefly: Caco2 assay (permeability, A-B). In kind it is in vitro ADME. The note with it: Table 3; Papp absorptive direction (A-B), test compound 50 μM, 120 minutes at 37° C. The method, then:
Caco-2 cells are grown at 37° C. in an atmosphere of 5% CO2 in DMEM growth medium supplemented with 10% (v/v) fetal bovine serum, 1% (v/v) nonessential amino acids, penicillin (100 U/mL), and streptomycin (100 μg/mL). Confluent cell monolayers are subcultured every 7 days or 4 days for Caco-2 by treatment with 0.05% trypsin containing […]. Caco-2 cells are seeded in 96-well Transwell plates. The seeding density for Caco-2 cells is 14,000 cells/well. DMEM growth medium is replaced every other day after seeding. Cell monolayers are used for transport assays between 22 and 25 days for Caco-2 cells.
Cell culture medium is removed and replaced with HBSS. To measure the TEER, the HBSS is added into the donor compartment (apical side) and receiver compartment (basolateral side). The TEER is measured by using a REMS Autosampler to ensure the integrity of the cell monolayers. Caco-2 cell monolayers with TEER values ≥300 Ω·cm^2 are used for transport experiments. To determine the Papp in the absorptive direction (A-B), solution of test compound (50 μM) in HBSS is added to the donor compartment (apical side), while HBSS solution with 4% BSA is added to the receiver compartment (basolateral side). The apical volume was 0.075 mL, and the basolateral volume is 0.25 mL. The incubation period is 120 minutes at 37° C. in an atmosphere of 5% CO2. At the end of the incubation period, samples from the donor and receiver sides are removed and an equal volume of acetonitrile is added for protein precipitation. The supernatants are collected after centrifugation (3000 rpm, Allegra X-14R Centrifuge from Beckman Coulter, Indianapolis, IN) for LCMS analysis. The permeability value is determined according to the equation:
[formula] • where the flux rate (F, mass/time) is calculated from the slope of cumulative amounts of compound of interest on the receiver side, SA is the surface area of the cell membrane, VD is the donor volume, and MD is the initial amount of the solution in the donor chamber.
The symbol “+” indicates a Caco-2 value of […], “++” indicates a Caco-2 value of >0.5 but ≤1; and “+++” indicates a Caco-2 value of >1. “NA” indicates IC50 not available.
In general terms: Caco-2 cells form a polarised layer with tight junctions and transporters.

Chain of KRAS G12D (P01116 1-188 isoform P01116-2 G12D): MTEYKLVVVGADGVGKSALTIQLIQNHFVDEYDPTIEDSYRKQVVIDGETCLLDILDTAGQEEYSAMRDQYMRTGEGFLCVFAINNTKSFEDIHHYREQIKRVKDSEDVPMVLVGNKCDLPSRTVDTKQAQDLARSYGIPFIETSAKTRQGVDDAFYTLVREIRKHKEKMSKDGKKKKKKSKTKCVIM
Chain of KRAS G12V mutant (P01116 1-188 isoform P01116-2 G12V): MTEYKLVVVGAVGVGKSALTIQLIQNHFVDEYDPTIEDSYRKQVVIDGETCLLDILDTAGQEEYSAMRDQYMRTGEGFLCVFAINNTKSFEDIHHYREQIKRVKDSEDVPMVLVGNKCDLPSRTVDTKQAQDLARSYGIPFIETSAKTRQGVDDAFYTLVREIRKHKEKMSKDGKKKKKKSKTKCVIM

As for `Cc1cc2c(-n3cncn3)nc3c(F)c(-c4cc(O)cc5ccc(Cl)cc45)c(CCC#N)cc3c2n1[C@H]1[C@H]2CN[C@@H]1C2` [Example 1, 3-(1-((1R,4R,5S)-2-Azabicyclo[2.1.1]hexan-5-yl)-7-(7-chloro-3-hydroxynaphthalen-1-yl)-6-fluoro-2-methyl-4-(1H-1,2,4-triazol-1-yl)-1H-pyrrolo[3,2-c]quinolin-8-yl)propanenitrile], the IC50 in series [1] and in series [2] was under 100 nM throughout. Also, in series [3], the Caco-2 result was “++ (a Caco-2 value of >0.5 but ≤1)”.
With `Cc1cc2c(O[C@@H](C)[C@@H]3CCCN3C)nc3c(F)c(-c4c[nH]c5c(F)cc(F)cc45)c(CCC#N)cc3c2n1[C@H]1[C@H]2CN[C@@H]1C2` [Example 2, 3-(1-((1R,4R,5S)-2-Azabicyclo[2.1.1]hexan-5-yl)-7-(5,7-difluoro-1H-indol-3-yl)-6-fluoro-2-methyl-4-((S)-1-((S)-1-methylpyrrolidin-2-yl)ethoxy)-1H-pyrrolo[3,2-c]quinolin-8-yl)propanenitrile], the IC50 in series [1] and in series [2] was under 100 nM each time. In addition, in series [3], the Caco-2 entry was “+ (a Caco-2 value of 50.5)”.
Regarding `Cc1cc2c(-c3c(CCC#N)cc4c(nc(O[C@@H](C)[C@@H]5CCCN5C)c5cc(C)n([C@H]6[C@H]7CN[C@@H]6C7)c54)c3F)c[nH]c2cc1F` [Example 3, 3-(1-((1R,4R,5S)-2-Azabicyclo[2.1.1]hexan-5-yl)-6-fluoro-7-(6-fluoro-5-methyl-1H-indol-3-yl)-2-methyl-4-((S)-1-((S)-1-methylpyrrolidin-2-yl)ethoxy)-1H-pyrrolo[3,2-c]quinolin-8-yl)propanenitrile], the IC50 in series [1] and in series [2] was under 100 nM in each case. For the same compound, the Caco-2 result in series [3] is reported as “+ (a Caco-2 value of 50.5)”.
Turning to `C[C@H](Oc1nc2c(F)c(-c3cccc(Cl)c3Cl)c(CCC#N)cc2c2c1cc(CCC(=O)N1CCC1)n2[C@H]1[C@H]2CN[C@@H]1C2)[C@@H]1CCCN1C` [Example 4, 3-(2-(3-(Azetidin-1-yl)-3-oxopropyl)-1-((1R,4R,5S)-2-azabicyclo[2.1.1]hexan-5-yl)-7-(2,3-dichlorophenyl)-6-fluoro-4-((S)-1-((S)-1-methylpyrrolidin-2-yl)ethoxy)-1H-pyrrolo[3,2-c]quinolin-8-yl)propanenitrile], the IC50 in series [1] and in series [2] was under 100 nM in each case. In addition, the Caco-2 result in series [3] is “+ (a Caco-2 value of 50.5)”.
As to `Cc1cc2c(nc(O[C@@H](C)[C@@H]3CCCN3C)c3cc(CN4CCOC4=O)n([C@H]4[C@H]5CN[C@@H]4C5)c32)c(F)c1-c1cc(O)cc2ccccc12` [Example 5, 3-((1-((1R,4R,5S)-2-Azabicyclo[2.1.1]hexan-5-yl)-6-fluoro-7-(3-hydroxynaphthalen-1-yl)-8-methyl-4-((S)-1-((S)-1-methylpyrrolidin-2-yl)ethoxy)-1H-pyrrolo[3,2-c]quinolin-2-yl)methyl)oxazolidin-2-one], the IC50 in series [1] and in series [2] was under 100 nM in each case. Besides, the Caco-2 result in series [3] was “+ (a Caco-2 value of 50.5)”.
Regarding `Cc1cc2c(nc(O[C@@H](C)[C@@H]3CCCN3C)c3cc(C)n([C@H]4[C@H]5CN[C@@H]4C5)c32)c(F)c1-c1cccc2cccc(C#N)c12` [Example 6, 8-(1-((1R,4R,5S)-2-Azabicyclo[2.1.1]hexan-5-yl)-6-fluoro-2,8-dimethyl-4-((S)-1-((S)-1-methylpyrrolidin-2-yl)ethoxy)-1H-pyrrolo[3,2-c]quinolin-7-yl)-1-naphthonitrile], the IC50 in series [1] and in series [2] was under 100 nM in each case. Besides, the Caco-2 entry in series [3] is listed as “++ (a Caco-2 value of >0.5 but ≤1)”.
Consider `Cc1nc2c(F)c(-c3cccc4ccc(F)cc34)c(CCC#N)cc2c2c1cc(CN1CCN(C)CC1=O)n2[C@H]1[C@H]2CN[C@@H]1C2` [Example 15, 3-(1-((1R,4R,5S)-2-Azabicyclo[2.1.1]hexan-5-yl)-6-fluoro-7-(7-fluoronaphthalen-1-yl)-4-methyl-2-((4-methyl-2-oxopiperazin-1-yl)methyl)-1H-pyrrolo[3,2-c]quinolin-8-yl)propanenitrile], for which the figures for the IC50 in series [1] and in series [2] were 100 to 1000 nM and under 100 nM, respectively. Besides, the Caco-2 result in series [3] was “++ (a Caco-2 value of >0.5 but ≤1)”.
With `CCOc1nc2c(F)c(-c3cc(O)cc(Cl)c3Cl)c(CCC#N)cc2c2c1cc(CN1CCN(C(C)C)CC1=O)n2[C@H]1[C@H]2CN[C@@H]1C2` [Example 16, 3-(1-((1R,4R,5S)-2-azabicyclo[2.1.1]hexan-5-yl)-7-(2,3-dichloro-5-hydroxyphenyl)-4-ethoxy-6-fluoro-2-((4-isopropyl-2-oxopiperazin-1-yl)methyl)-1H-pyrrolo[3,2-c]quinolin-8-yl)propanenitrile], the IC50 in series [1] and in series [2] was under 100 nM throughout. Also, the Caco-2 entry in series [3] is reported as “+ (a Caco-2 value of 50.5)”.
For the compound `CN(C)C1(C)CN(c2nc3c(F)c(-c4cccc5ccc(F)cc45)c(CCC#N)cc3c3c2cc(CN2CCOCC2=O)n3[C@H]2[C@H]3CN[C@@H]2C3)C1` [Example 17, 3-(1-((1R,4R,5S)-2-Azabicyclo[2.1.1]hexan-5-yl)-4-(3-(dimethylamino)-3-methylazetidin-1-yl)-6-fluoro-7-(7-fluoronaphthalen-1-yl)-2-((3-oxomorpholino)methyl)-1H-pyrrolo[3,2-c]quinolin-8-yl)propanenitrile], the IC50 in series [1] and in series [2] was under 100 nM in each case. In addition, the Caco-2 entry in series [3] is “+ (a Caco-2 value of 50.5)”.
On to `CCOc1nc2c(F)c(-c3cc(O)cc4ccccc34)c(CCC#N)cc2c2c1cc(C(C)N1CCOCC1=O)n2[C@H]1[C@H]2CN[C@@H]1C2` (stereo partly drawn) [Example 18, 3-(1-((1R,4R,5S)-2-azabicyclo[2.1.1]hexan-5-yl)-4-ethoxy-6-fluoro-7-(3-hydroxynaphthalen-1-yl)-2-(1-(3-oxomorpholino)ethyl)-1H-pyrrolo[3,2-c]quinolin-8-yl)propanenitrile], for which the IC50 in series [1] and in series [2] was under 100 nM throughout. Further, the Caco-2 entry in series [3] was “+ (a Caco-2 value of 50.5)”.
In the case of `C[C@H](Oc1nc2c(F)c(-c3cc(O)cc4ccccc34)c(CCC#N)cc2c2c1cc(-c1cccnc1)n2C1C2CNC1C2)[C@@H]1CCCN1C` (stereo partly drawn) [Example 19, 3-(1-((endo)-2-Azabicyclo[2.1.1]hexan-5-yl)-6-fluoro-7-(3-hydroxynaphthalen-1-yl)-4-((S)-1-((S)-1-methylpyrrolidin-2-yl)ethoxy)-2-(pyridin-3-yl)-1H-pyrrolo[3,2-c]quinolin-8-yl)propanenitrile], the IC50 in series [1] and in series [2] was under 100 nM in each case. In addition, the Caco-2 entry in series [3] is “+ (a Caco-2 value of 50.5)”.
For `CC(=O)N1CC[C@H](n2ncc3c(O[C@@H](C)[C@@H]4CCCN4C)nc4c(F)c(-c5cccc6cccc(C#N)c56)c(Cl)cc4c32)C[C@H]1CC#N` [Example 25, 8-(1-((2S,4S)-1-acetyl-2-(cyanomethyl)piperidin-4-yl)-8-chloro-6-fluoro-4-((S)-1-((S)-1-methylpyrrolidin-2-yl)ethoxy)-1H-pyrazolo[4,3-c]quinolin-7-yl)-1-naphthonitrile], the IC50 in series [1] and in series [2] was under 100 nM each time. For the same compound, in series [3], the Caco-2 entry was “+++ (a Caco-2 value of >1)”.
Consider `Cc1cc2c(-n3cncn3)nc3c(F)c(-c4cc(O)cc5ccc(F)cc45)c(CCC#N)cc3c2n1[C@H]1[C@H]2CN[C@@H]1C2` [Example 26, 3-(1-((1R,4R,5S)-2-Azabicyclo[2.1.1]hexan-5-yl)-6-fluoro-7-(7-fluoro-3-hydroxynaphthalen-1-yl)-2-methyl-4-(1H-1,2,4-triazol-1-yl)-1H-pyrrolo[3,2-c]quinolin-8-yl)propanenitrile], for which the IC50 in series [1] and in series [2] was under 100 nM throughout. For the same compound, in series [3], the Caco-2 result is listed as “+ (a Caco-2 value of 50.5)”.
